Target: T1, mPDE10A7 (Mus musculus, UniProt Q8CA95)
T1 sequence (Q8CA95 446-763 limits assumed): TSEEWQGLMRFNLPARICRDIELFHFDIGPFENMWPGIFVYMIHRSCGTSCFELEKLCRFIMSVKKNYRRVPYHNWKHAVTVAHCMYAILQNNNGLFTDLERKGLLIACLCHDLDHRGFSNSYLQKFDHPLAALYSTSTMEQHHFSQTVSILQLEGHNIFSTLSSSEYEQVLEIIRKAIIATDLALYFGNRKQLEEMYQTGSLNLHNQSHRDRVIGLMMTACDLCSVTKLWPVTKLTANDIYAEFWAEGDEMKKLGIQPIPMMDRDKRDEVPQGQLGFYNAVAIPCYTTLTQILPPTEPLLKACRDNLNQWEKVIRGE
Assay: mPDE10A7 enzyme inhibition (IMAP fluorescence polarization, fluorescein labeled cAMP or cGMP)
Type: biochemical
Method: mPDE10A7 Enzyme Activity and Inhibition
To analyze the enzyme activity, 5 μL of serial diluted mPDE10A7 containing lysate were incubated with equal volumes of diluted (100-fold) fluorescein labeled cAMP or cGMP for 30 minutes in MDC HE 96-well assay plates at room temperature. Both the enzyme and the substrates were diluted in the following assay buffer: Tris/HCl (pH 8.0) 50 mM, MgCl2 5 mM, 2-mercaptoethanol 4 mM, BSA 0.33 mg/mL. After incubation, the reaction was stopped by adding 20 μL of diluted (400-fold) binding reagents and was incubated for an hour at room temperature. The plates were counted in an Analyst GT (Molecular Devices) for fluorescence polarization. An IMAP Assay kit (Molecular Device) was used to assess enzyme properties of mmPDE10A7. Data were analyzed with SoftMax Pro.
To check the inhibition profile, 10 μL of serial diluted compounds were incubated with 30 μl of diluted PDE enzymes in a 96-well polystyrene assay plate for 30 minutes at room temperature. After incubation, 5 μL of the compound-enzyme mixture were aliquoted into a MDC HE black plate, mixed with 5 μl of 100-fold diluted fluorescein labeled substrates (cAMP or cGMP), and incubated for 30 minutes at room temperature. The reaction was stopped by adding 20 μL of diluted binding reagents and counted in an Analyst GT for fluorescence polarization. The data were analyzed with SoftMax Pro.

IC50: 219 nM
SMILES: COCCOc1cccc2c1CCN(c1ncnc3cc(OC)c(OC)cc13)C2=O [2-(6,7-dimethoxyquinazolin-4-yl)-5-(2-methoxyethoxy)-3,4-dihydroisoquinoline-1 (2H)-one]
